Results taken from patent US9747412B2, “Method for identifying activation of transferases” (HVIVO SERVICES LIMITED, priority 2010, dated 2017).

Test system: epithelial cell line MCF10A
Assay: Global Kinase Activity Profiling (GKAP) of lysates of cells treated with EGF and kinase inhibitors
Format: cell-based, human
Conditions: for Decrease in the number of EGF-dependent kinase activities detected: MCF10A cells pre-treated 1 h with inhibitor (5 μM LY294002 or 10 μM U0126) before 100 ng/ml EGF for 10 min

| Compound | Decrease in the number of EGF-dependent kinase activities detected | Number of kinase reactions that increased as a function of treatment (treatment with EGF (summary statement)) |
| --- | --- | --- |
| O=c1cc(N2CCOCC2)oc2c(-c3ccccc3)cccc12 [LY92004] | about 30% |  |
| N#CC(=C(/N)Sc1ccccc1N)/C(C#N)=C(\N)Sc1ccccc1N [U0126] | about 30% |  |
| EGF: recombinant human EGF (Peprotech AF-100-15), growth factor activating kinase pathways downstream of its receptor (NSDSECPLSHDGYCLHDGVCMYIEALDKYACNCVVGYIGERCQYRDLKWWELR; UniProt P01133 971-1023, looked up) |  | > 300 |
